Assay results taken from patent publication US20180353501A1 (Arvinas, Inc., priority 2017, published 2018).

Target: T1, p38δ:PROTAC:VHL ternary complex (Homo sapiens, UniProt O15264+P40337)
T1 construct: encoding a region spanning amino acids 1-365 was PCR-amplified; His6 (N); made in house; host or cells: E. coli (BL21-CodonPlus(DE3)-RIPL for p38δ; BL21(DE3) for GST-VBC)
Experiment: In vitro ternary complex pull-down with GST-VBC bait, purified p38δ
Assay type: binding
Source text: FIGS. 15A, 15B, and 15C. Differential p38δ:PROTAC:VHL ternary complex affinities result in distinct cellular ubiquitination outcomes. (A) Both exemplary compound 50 and 46 pull-down p38δ in vitro, however compound 46 maintains ternary complex at lower concentrations. As in FIG. 14A, GST-tagged VBC was used as a bait to trap recombinant p38δ in the presence of vehicle (DMSO) or the indicated concentrations of compound 50 or 46. The rightmost lane represents a 1:25 dilution of initial input protein used in each pull-down. […] GST-VBC was immobilized on glutathione sepharose beads and incubated with MDA-MB-231 whole cell lysate (WCL) in the presence of vehicle (DMSO) or the indicated concentrations of compound 50 or 46. Beads were washed and “trapped” proteins (i.e. those that engage in a ternary complex) were eluted with SDS sample buffer and separated by SDS-PAGE. Samples were assessed by western blot and CUL2 and α-tubulin serve as positive and negative GST-VBC immunoprecipitation controls, respectively. (C) Only exemplary compound 46 ubiquitinates FLAG-p38δ in HeLa cells. As in FIG. 14C, HeLa cells were co-transfected with HA-Ub and FLAG-p38δ and were either treated with vehicle (DMSO) or 1 μM of compound 50 or 1 μM of compound 46 for 2 hours. FLAGimmunoprecipitated lysates were separated by SDS-PAGE and assessed via western blots detecting HA (Ub). […]

T1 sequence (O15264 whole entry, the tested form may be a part): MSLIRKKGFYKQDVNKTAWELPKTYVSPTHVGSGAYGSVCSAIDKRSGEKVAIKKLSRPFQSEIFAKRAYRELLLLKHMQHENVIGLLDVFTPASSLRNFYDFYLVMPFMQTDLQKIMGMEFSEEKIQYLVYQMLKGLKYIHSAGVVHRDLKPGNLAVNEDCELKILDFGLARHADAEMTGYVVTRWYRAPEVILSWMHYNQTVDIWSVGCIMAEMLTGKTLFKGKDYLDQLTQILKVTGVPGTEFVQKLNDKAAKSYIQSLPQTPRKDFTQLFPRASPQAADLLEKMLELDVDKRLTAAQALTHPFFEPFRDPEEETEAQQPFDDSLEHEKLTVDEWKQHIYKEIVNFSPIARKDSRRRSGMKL
T1 sequence (P40337 whole entry, the tested form may be a part): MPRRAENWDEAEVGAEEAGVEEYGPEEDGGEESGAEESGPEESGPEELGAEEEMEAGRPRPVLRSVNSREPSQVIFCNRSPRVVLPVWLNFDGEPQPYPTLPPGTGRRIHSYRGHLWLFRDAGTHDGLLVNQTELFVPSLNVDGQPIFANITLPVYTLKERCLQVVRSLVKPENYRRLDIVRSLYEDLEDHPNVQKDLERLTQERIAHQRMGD
T1 sequence (Q15370 whole entry partner, the tested form may be a part): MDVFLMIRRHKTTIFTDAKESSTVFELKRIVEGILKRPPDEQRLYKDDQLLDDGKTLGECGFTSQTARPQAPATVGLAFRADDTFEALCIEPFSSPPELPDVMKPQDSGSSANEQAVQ
T1 sequence (Q15369 whole entry partner, the tested form may be a part): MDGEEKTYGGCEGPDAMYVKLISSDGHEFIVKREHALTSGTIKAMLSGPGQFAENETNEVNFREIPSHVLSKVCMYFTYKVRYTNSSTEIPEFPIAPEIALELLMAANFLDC

Structure (SMILES) | pull-down of purified p38δ on GST-VBC-coated beads
COc1cc2c(Oc3ccc(NC(=O)C4(C(=O)Nc5ccc(F)cc5)CC4)cc3F)ccnc2cc1OCCOCCOCCOc1cc(-c2scnc2C)ccc1CNC(=O)[C@@H]1C[C@@H](O)CN1C(=O)[C@H](C(C)C)N1Cc2ccccc2C1=O [compound 46] | slightly greater ternary complex pull-down efficiency
COc1cc2c(Oc3ccc(NC(=O)C4(C(=O)Nc5ccc(F)cc5)CC4)cc3F)ccnc2cc1OCCCCOCCCCOCC(=O)N[C@H](C(=O)N1C[C@H](O)C[C@H]1C(=O)NCc1ccc(-c2scnc2C)cc1)C(C)(C)C [compound 50, N-(3-fluoro-4-((7-(4-(4-(2-(((S)-1-((2S,4R)-4-hydroxy-2-((4-(4-methylthiazol-5-yl)benzyl)carbamoyl)pyrrolidin-1-yl)-3,3-dimethyl-1-oxobutan-2-yl)amino)-2-oxoethoxy)butoxy)buto-xy)-6-methoxyquinolin-4-yl)oxy)phenyl)-N-(4-fluorophenyl)cyclopropane-1,1-dicarboxa-mide] | able to pull-down purified p38δ on GST-VBC-coated beads in a dose-dependent manner
